From ChEMBL document CHEMBL1201862, “PubChem BioAssay data set” (2004)
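Tested at 5 concentrations; 48 h exposure; 96-well plates; endpoints linearly interpolated, else capped at highest concentration. GI50 is the concentration that inhibits growth by half.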 Calls of active or inactive are those of the source. Rule as the data show it: active = GI50 up to about 1.1 µM and inactive = higher.

What was measured:
Assay in all cases: growth of human tumour cells (NCI), 48 h
[1] = test system: SF-268
[2] = test system: SK-MEL-28
[3] = test system: CAKI-1
[4] = test system: MCF7
[5] = test system: K562
[6] = test system: UACC-62
[7] = test system: OVCAR-5
[8] = test system: SF-539
[9] = test system: OVCAR-3
[10] = test system: MOLT-4
[11] = test system: M19-MEL
[12] = test system: SK-OV-3
[13] = test system: SNB-78
[14] = test system: A498
[15] = test system: Malme-3M
[16] = test system: UACC-257
[17] = test system: IGROV-1
[18] = test system: OVCAR-4
[19] = test system: HOP-62
[20] = test system: KM-20L2
[21] = test system: LOX IMVI
[22] = test system: EKVX
[23] = test system: NCI/ADR-RES
[24] = test system: OVCAR-8
[25] = test system: U-251
[26] = test system: NCI-H23
[27] = test system: HCC 2998
[28] = test system: DLD-1
[29] = test system: HOP-92
[30] = test system: HT-29
[31] = test system: SK-MEL-2
[32] = test system: A549
[33] = test system: KM12
[34] = test system: HCT-15
[35] = test system: SK-MEL-5
[36] = test system: SW-620
[37] = test system: XF498
[38] = test system: UO-31
[39] = test system: HCT-116
[40] = test system: COLO 205
[41] = test system: HOP-18
[42] = test system: NCI-H226
[43] = test system: SF-295
[44] = test system: SNB-19
[45] = test system: NCI-H522
[46] = test system: SN12C
[47] = test system: NCI-H460
[48] = test system: SNB-75
[49] = test system: CCRF-CEM
[50] = test system: DMS-273
[51] = test system: RPMI-8226
[52] = test system: HL-60
[53] = test system: RXF 393
[54] = test system: DMS-114

`O=C(NC(Cc1ccc(I)cc1)C(=O)O)c1ccc(Cl)cc1` (stereo not given) was tested, and the GI50 [1] was > 100 µM (inactive), the GI50 [2] was > 100 µM (inactive) and the GI50 [3] was > 100 µM (inactive). For the same compound, the GI50 [4] was 37.8 µM (inactive), the GI50 [5] was > 100 µM (inactive) and the GI50 [6] was 74.8 µM (inactive). For the same compound, the GI50 [7] was > 100 µM (inactive), the GI50 [8] was > 77.1 µM (inactive) and the GI50 [9] was > 88.5 µM (inactive). The GI50 [10] was > 74.3 µM (inactive), the GI50 [11] was > 100 µM (inactive) and the GI50 [12] was > 100 µM (inactive). For the same compound, the GI50 [13] was > 100 µM (inactive), the GI50 [14] was > 100 µM (inactive) and the GI50 [15] was 89.7 µM (inactive). For the same compound, the GI50 [16] was > 100 µM (inactive), the GI50 [17] was > 100 µM (inactive) and the GI50 [18] was > 66.8 µM (inactive). The GI50 [19] was > 100 µM (inactive), the GI50 [20] was > 100 µM (inactive) and the GI50 [21] was > 100 µM (inactive). For the same compound, the GI50 [22] was > 67.8 µM (inactive), the GI50 [23] was > 100 µM (inactive) and the GI50 [24] was > 100 µM (inactive). For the same compound, the GI50 [25] was > 100 µM (inactive), the GI50 [26] was > 100 µM (inactive) and the GI50 [27] was > 38.8 µM (inactive). For the same compound, the GI50 [28] was > 100 µM (inactive), the GI50 [29] was 67.8 µM (inactive) and the GI50 [30] was > 100 µM (inactive). The GI50 [31] was > 100 µM (inactive), the GI50 [32] was > 100 µM (inactive) and the GI50 [33] was > 100 µM (inactive). The GI50 [34] was over 100 µM, the GI50 [35] was > 100 µM (inactive) and the GI50 [36] was > 100 µM (inactive). The GI50 [37] was > 80.9 µM (inactive), the GI50 [38] was > 100 µM (inactive) and the GI50 [39] was > 100 µM (inactive). The GI50 [40] was > 100 µM (inactive), the GI50 [41] was > 100 µM (inactive) and the GI50 [42] was > 100 µM (inactive). For the same compound, the GI50 [43] was > 100 µM (inactive), the GI50 [44] was > 100 µM (inactive) and the GI50 [45] was 74.3 µM (inactive). For the same compound, the GI50 [46] was > 100 µM (inactive), the GI50 [47] was > 100 µM (inactive) and the GI50 [48] was 87.3 µM (inactive). For the same compound, the GI50 [49] was > 81.5 µM (inactive), the GI50 [50] was > 100 µM (inactive) and the GI50 [51] was 59.3 µM (inactive). The GI50 [52] was > 100 µM (inactive).
With `CCCCCCCCCCCCCCCCNCC(O)CN` (stereo not given) the GI50 [1] was 3.32 µM (inactive), the GI50 [2] was 13.1 µM (inactive) and the GI50 [3] was 12.2 µM (inactive). The GI50 [4] was 2.36 µM (inactive), the GI50 [5] was 1.75 µM (inactive) and the GI50 [6] was 4.7 µM (inactive). The GI50 [7] was 7.76 µM (inactive), the GI50 [8] was 2.34 µM (inactive) and the GI50 [9] was 2.52 µM (inactive). For the same compound, the GI50 [10] was 2.07 µM (inactive), the GI50 [11] was 2.4 µM (inactive) and the GI50 [12] was 18.4 µM (inactive). The GI50 [13] was 2.48 µM (inactive), the GI50 [14] was 18 µM (inactive) and the GI50 [15] was 16.2 µM (inactive). The GI50 [16] was 9.89 µM (inactive), the GI50 [17] was 5.19 µM (inactive) and the GI50 [18] was 3.48 µM (inactive). The GI50 [19] was 16.7 µM (inactive), the GI50 [20] was 2.65 µM (inactive) and the GI50 [21] was 1.75 µM (inactive). The GI50 [22] was 17.3 µM (inactive), the GI50 [23] was 2.22 µM (inactive) and the GI50 [24] was 3.53 µM (inactive). For the same compound, the GI50 [25] was 2.51 µM (inactive), the GI50 [26] was 6.71 µM (inactive) and the GI50 [27] was 2.39 µM (inactive). The GI50 [28] was 1.87 µM (inactive), the GI50 [29] was 2.65 µM (inactive) and the GI50 [30] was 1.99 µM (inactive). For the same compound, the GI50 [31] was 18.6 µM (inactive), the GI50 [32] was 3.44 µM (inactive) and the GI50 [33] was 1.75 µM (inactive). The GI50 [34] was 2.06 µM, the GI50 [35] was 11.7 µM (inactive) and the GI50 [36] was 1.79 µM (inactive). The GI50 [37] was 7.29 µM (inactive), the GI50 [38] was 7.73 µM (inactive) and the GI50 [39] was 1.87 µM (inactive). The GI50 [40] was 1.87 µM (inactive), the GI50 [41] was 5.46 µM (inactive) and the GI50 [42] was 8.89 µM (inactive). For the same compound, the GI50 [43] was 2.64 µM (inactive), the GI50 [44] was 19.5 µM (inactive) and the GI50 [53] was 2.82 µM (inactive). The GI50 [45] was 14.5 µM (inactive), the GI50 [46] was 4.07 µM (inactive) and the GI50 [47] was 1.84 µM (inactive). For the same compound, the GI50 [48] was 3.28 µM (inactive), the GI50 [49] was 1.96 µM (inactive) and the GI50 [50] was 3.96 µM (inactive). The GI50 [51] was 2 µM (inactive), the GI50 [54] was 5.69 µM (inactive) and the GI50 [52] was 1.85 µM (inactive).
With `COC(=O)C1C(O)C(C)C(O)OC1C(C)C(O)C(C)/C=C\C=C(/C)C(=O)Nc1c(C)c(OC(C)=O)c2c(c1O)C(=O)C(C)=C1OCOC(/C(C)=C/C(C)=O)=C12` (stereo not given) the GI50 [1] was 3.08 µM (inactive), the GI50 [2] was 2.99 µM (inactive) and the GI50 [3] was 17.6 µM (inactive). The GI50 [4] was 13.9 µM (inactive), the GI50 [5] was 16.5 µM (inactive) and the GI50 [6] was 14.3 µM (inactive). For the same compound, the GI50 [7] was 13.5 µM (inactive), the GI50 [8] was 13.2 µM (inactive) and the GI50 [9] was 9.38 µM (inactive). For the same compound, the GI50 [10] was 10.7 µM (inactive), the GI50 [11] was 13.3 µM (inactive) and the GI50 [12] was 20 µM (inactive). The GI50 [13] was 13.2 µM (inactive), the GI50 [14] was 15.2 µM (inactive) and the GI50 [15] was 13.5 µM (inactive). The GI50 [16] was 12.5 µM (inactive), the GI50 [17] was 12.6 µM (inactive) and the GI50 [18] was 12.1 µM (inactive). For the same compound, the GI50 [19] was 11.6 µM (inactive), the GI50 [20] was 12.9 µM (inactive) and the GI50 [21] was 13.7 µM (inactive). For the same compound, the GI50 [22] was 11.9 µM (inactive), the GI50 [23] was 15.1 µM (inactive) and the GI50 [24] was 13.7 µM (inactive). The GI50 [25] was 14.4 µM (inactive), the GI50 [26] was 14.2 µM (inactive) and the GI50 [27] was 13.9 µM (inactive). For the same compound, the GI50 [28] was 8.93 µM (inactive), the GI50 [29] was 12.8 µM (inactive) and the GI50 [30] was 14.5 µM (inactive). The GI50 [31] was 12.6 µM (inactive), the GI50 [32] was 15.1 µM (inactive) and the GI50 [33] was 14 µM (inactive). The GI50 [34] was 14.3 µM, the GI50 [35] was 12.8 µM (inactive) and the GI50 [36] was 9.53 µM (inactive). The GI50 [37] was 13.8 µM (inactive), the GI50 [38] was 16.4 µM (inactive) and the GI50 [39] was 9.53 µM (inactive). For the same compound, the GI50 [40] was 8.99 µM (inactive), the GI50 [41] was 15.2 µM (inactive) and the GI50 [42] was 12.4 µM (inactive). For the same compound, the GI50 [43] was 14.9 µM (inactive), the GI50 [44] was 15.1 µM (inactive) and the GI50 [53] was 13 µM (inactive). The GI50 [45] was 2.25 µM (inactive), the GI50 [46] was 12.4 µM (inactive) and the GI50 [47] was 13.7 µM (inactive). The GI50 [48] was 3.77 µM (inactive), the GI50 [49] was 5.96 µM (inactive) and the GI50 [50] was 13.3 µM (inactive). For the same compound, the GI50 [51] was 9.48 µM (inactive), the GI50 [54] was 10.1 µM (inactive) and the GI50 [52] was 3.1 µM (inactive).
